Data as given in EP0595557A1, “New substituted azetidinones as anti-inflammatory and antidegenerative agents” (MERCK & CO. INC., priority 1992, dated 1994).

Biological target: T1, Human Polymorphonuclear Leukocyte Elastase (Homo sapiens, UniProt P08246)
T1 construct: Crude extract of human polymorphonuclear leukocytes (PMN) containing elastase activity; from tissue; host or cells: human polymorphonuclear leukocytes (crude extract)
T1 sequence (P08246 30-267): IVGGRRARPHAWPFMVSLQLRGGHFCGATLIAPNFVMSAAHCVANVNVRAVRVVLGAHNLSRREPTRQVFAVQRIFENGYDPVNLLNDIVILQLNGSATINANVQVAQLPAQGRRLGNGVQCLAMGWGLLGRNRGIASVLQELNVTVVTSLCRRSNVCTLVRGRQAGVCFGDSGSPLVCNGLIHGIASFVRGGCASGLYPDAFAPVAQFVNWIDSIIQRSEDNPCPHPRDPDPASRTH
Assay: Enzyme assay for inhibition of human polymorphonuclear leukocyte elastase via hydrolysis of Boc-AAPAN or Boc-AAPVN
Assay type: biochemical
Conditions: pH 7.5, second order rate constant for inactivation of the enzyme, expressed to the nearest thousand, read-out: Kobs/[I]
How it was run: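 Crude human PMN extract as enzyme source, with 0.2 mM Boc-AAPAN in 0.05M TES buffer pH 7.5. Inhibitors in DMSO were added to substrate before the extract, and rate was followed as ΔOD/min at 410 mµ. Values are kobs/I, the second-order inactivation rate constant (per mole per second).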

Row | Compound | kinact/KI [M⁻¹ s⁻¹]
1 | CCC[C@@H](NC(=O)N1C(=O)C(CC)(CC)[C@@H]1Oc1ccc(C(=O)N2CCN(CCOC(=O)NC)CC2)cc1)c1ccc(C)cc1 [Compound 255] | 2.55e+06
2 | CCC[C@@H](NC(=O)N1C(=O)C(CC)(CC)[C@@H]1Oc1ccc(C(=O)Nc2ccc(N(C)C)cc2)cc1)c1ccc(C)cc1 [Compound 113] | 2.59e+06
3 | CCC[C@@H](NC(=O)N1C(=O)C(CC)(CC)[C@@H]1Oc1ccc(C(=O)N(CCN2CCCCC2)Cc2cccnc2)cc1)c1ccc(C)cc1 [Compound 139] | 1.19e+06
4 | CCC[C@@H](NC(=O)N1C(=O)C(CC)(CC)[C@@H]1Oc1ccc(CC(N)=O)cc1)c1ccc(C(=O)N2CCOCC2)cc1 [Compound 274] | 430000
5 | CCC[C@@H](NC(=O)N1C(=O)C(CC)(CC)[C@@H]1Oc1ccc(C(=O)OCC[N+](C)(C)[O-])cc1)c1ccc(C)cc1 [Compound 15] | 2.16e+06
6 | CCC[C@@H](NC(=O)N1C(=O)C(CC)(CC)[C@@H]1Oc1ccc(C(=O)N2CCC(N(C)C)C2)cc1)c1ccc(C)cc1 (some centres unmarked) [Compound 229] | 1.34e+06
7 | CCC[C@@H](NC(=O)N1C(=O)C(CC)(CC)[C@@H]1Oc1ccc(C(=O)N(C)CC[N+](C)(C)[O-])cc1)c1ccc(C)cc1 [Compound 85] | 1.59e+06
8 | CCC[C@@H](NC(=O)N1C(=O)C(CC)(CC)[C@@H]1Oc1ccc(C(=O)N(C)CC(OC(C)=O)C(OC(C)=O)C(OC(C)=O)C(COC(C)=O)OC(C)=O)cc1)c1ccc(C)cc1 (some centres unmarked) [Compound 157] | 1.17e+06
9 | CCC[C@@H](NC(=O)N1C(=O)C(CC)(CC)[C@@H]1Oc1ccc(C(=O)N(C)CC(C)N(C)C)cc1)c1ccc(C)cc1 (some centres unmarked) [Compound 219] | 1.59e+06
10 | CCC[C@@H](NC(=O)N1C(=O)C(CC)(CC)[C@@H]1Oc1ccc(C(=O)N(C)CCN(C)Cc2ccc(F)cc2)cc1)c1ccc(C)cc1 [Compound 182] | 2.14e+06
11 | CCC[C@@H](NC(=O)N1C(=O)C(CC)(CC)[C@@H]1Oc1ccc(C(=O)N2CCOCC2)cc1)c1ccc(C(=O)N2CCOCC2)cc1 [Compound 280] | 577000
12 | CCC[C@@H](NC(=O)N1C(=O)C(CC)(CC)[C@@H]1Oc1ccc(C(=O)N(C)C2CCN(CCC)CC2)cc1)c1ccc(C)cc1 [Compound 216] | 1.31e+06
13 | CCC[C@@H](NC(=O)N1C(=O)C(CC)(CC)[C@@H]1Oc1ccc(C(=O)N(CC)CC)cc1)c1ccc(C(=O)N2CCOCC2)cc1 [Compound 279] | 566000
14 | CCC[C@@H](NC(=O)N1C(=O)C(CC)(CC)[C@@H]1Oc1ccc(C(=O)N(C)CCN2CCCCCC2)cc1)c1ccc(C)cc1 [Compound 122] | 2.9e+06
15 | CCC[C@@H](NC(=O)N1C(=O)C(CC)(CC)[C@@H]1Oc1ccc(C(=O)OCCN(C(C)C)C(C)C)cc1)c1ccc(C)cc1 [Compound 21, 2-(diisopropylamino)ethyl [S-(R*,S*)]-4-[[3,3-diethyl-1-[[[1-(4-methyl-phenyl)butyl]amino]carbonyl]-4-oxo-2-azetidinyl]oxy]benzoate] | 1.67e+06
16 | CCC[C@@H](NC(=O)N1C(=O)C(CC)(CC)[C@@H]1Oc1ccc(C(=O)NCCN(C(C)C)C(C)C)cc1)c1ccc(C)cc1 [Compound 84] | 2.1e+06
17 | CCC[C@@H](NC(=O)N1C(=O)C(CC)(CC)[C@@H]1Oc1ccc(CC(=O)N(CC)CC)cc1)c1cccc(C(=O)N2CCOCC2)c1 [Compound 267] | 334000
